The text below walks through data of US20140213513A1 (Sanofi, priority 2012, published 2014).

The structures appear in SMILES notation. *1 amine or outer side, *2 acyl side, *3 side chain or, on linkers, in order; H or OH if unused. Where a SMILES comes first, the peptide text is derived from it. Side-chain parts run from the residue outwards. [ ]: non-standard residue; d: D form. The star is where a group is joined. γGlu = O=C(O)[C@H](CCC(=O)[*:2])N[*:1]; Stearoyl = CCCCCCCCCCCCCCCCCC(=O)*; Palmitoyl = CCCCCCCCCCCCCCCC(=O)*; Aib = CC(C)(N)C(=O)O

What all share (type): cell-based
Conditions in all cases: Table 7; cAMP formation
(In general: Changes in cAMP serve as a functional read-out for many G protein-coupled receptors.)

Test [1] has as its target T1, human GLP-1 receptor (hGLP-1 R) (Homo sapiens, UniProt P43220).
T1 construct: expressed in transfected cells
Put plainly: cAMP response of HEK-293 cells stably expressing human GLP-1 receptor (HTRF). As for the experimental part: (§1) cAMP content of cells was determined using a kit from Cisbio Corp. (cat. no. 62AM4PEC) based on HTRF (Homogenous Time Resolved Fluorescence). For preparation, cells were split into T175 culture flasks and grown overnight to near confluency in medium (DMEM/10% FBS). Medium was then removed and cells washed with PBS lacking calcium and magnesium, followed by proteinase treatment with accutase (Sigma-Aldrich cat. no. A6964). Detached cells were washed and resuspended in assay buffer (1×HBSS; 20 mM HEPES, 0.1% BSA, 2 mM IBMX) and cellular density determined. They were then diluted to 400000 cells/ml and 25 μl-aliquots dispensed into the wells of 96-well plates. For measurement, 25 μl of test compound in assay buffer was added to the wells, followed by incubation for 30 minutes at room temperature.

The target of test [2] is T2, human GIP receptor (hGIP R) (Homo sapiens, UniProt P48546).
T2 construct: expressed in transfected cells
T2 sequence (P48546 22-466): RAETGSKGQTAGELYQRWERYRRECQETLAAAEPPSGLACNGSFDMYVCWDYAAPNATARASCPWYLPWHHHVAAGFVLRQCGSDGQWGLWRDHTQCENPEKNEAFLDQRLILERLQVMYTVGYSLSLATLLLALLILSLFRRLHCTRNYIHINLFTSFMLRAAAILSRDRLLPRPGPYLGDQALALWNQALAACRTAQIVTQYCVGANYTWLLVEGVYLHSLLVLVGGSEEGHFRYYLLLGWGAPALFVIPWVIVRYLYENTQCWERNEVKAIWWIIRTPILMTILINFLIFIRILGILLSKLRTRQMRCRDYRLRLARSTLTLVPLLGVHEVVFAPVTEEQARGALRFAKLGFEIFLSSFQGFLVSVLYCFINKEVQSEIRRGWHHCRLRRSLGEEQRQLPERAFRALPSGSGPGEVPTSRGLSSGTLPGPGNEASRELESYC
As to the kind of experiment: cAMP response of HEK-293 cells stably expressing human GIP receptor (HTRF). As for the experimental part: as §1
On the technique in general: TR-FRET usually uses a lanthanide donor and a delayed reading to cut background.

Test [3] has as its target T3, human glucagon receptor (hGLUC R) (Homo sapiens, UniProt P47871).
T3 construct: expressed in transfected cells
As to the kind of experiment: cAMP response of HEK-293 cells stably expressing human glucagon receptor (HTRF). How it is done:
as §1

T3 sequence (P47871 26-477): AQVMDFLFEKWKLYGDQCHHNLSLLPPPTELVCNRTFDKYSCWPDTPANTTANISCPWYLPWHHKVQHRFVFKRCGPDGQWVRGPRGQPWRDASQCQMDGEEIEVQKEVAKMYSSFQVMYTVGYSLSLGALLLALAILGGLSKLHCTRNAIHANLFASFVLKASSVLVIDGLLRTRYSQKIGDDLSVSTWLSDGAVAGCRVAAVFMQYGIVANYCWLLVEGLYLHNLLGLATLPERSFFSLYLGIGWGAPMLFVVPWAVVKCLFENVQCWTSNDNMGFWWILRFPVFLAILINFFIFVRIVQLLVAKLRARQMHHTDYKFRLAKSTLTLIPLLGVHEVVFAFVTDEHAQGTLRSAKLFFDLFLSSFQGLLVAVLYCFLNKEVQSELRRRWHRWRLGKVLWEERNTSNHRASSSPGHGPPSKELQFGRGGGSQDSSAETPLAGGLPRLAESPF
T1 sequence (P43220 24-463): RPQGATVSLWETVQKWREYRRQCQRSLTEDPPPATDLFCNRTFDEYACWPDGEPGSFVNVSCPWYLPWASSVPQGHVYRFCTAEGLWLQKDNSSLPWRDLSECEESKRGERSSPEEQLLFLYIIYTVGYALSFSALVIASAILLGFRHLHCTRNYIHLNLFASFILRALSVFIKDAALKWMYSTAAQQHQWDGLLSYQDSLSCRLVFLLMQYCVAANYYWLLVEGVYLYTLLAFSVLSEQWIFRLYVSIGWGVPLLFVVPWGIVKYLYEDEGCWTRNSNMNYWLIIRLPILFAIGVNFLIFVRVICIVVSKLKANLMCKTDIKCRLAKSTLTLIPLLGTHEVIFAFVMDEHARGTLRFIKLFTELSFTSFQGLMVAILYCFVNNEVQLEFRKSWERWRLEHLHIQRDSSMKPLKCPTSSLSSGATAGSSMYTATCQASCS

As usually defined, the EC50 is the midpoint of the concentration-response curve. A low value points to a more potent agent. Take `CCCCCCCCCCCCCCCC(=O)N[C@@H](CCC(=O)NCCCC[C@H](NC(=O)[C@H](CCC(N)=O)NC(=O)[C@@H](NC(=O)[C@H](CO)NC(=O)[C@H](CC(C)C)NC(=O)[C@H](CC(=O)O)NC(=O)[C@H](CO)NC(=O)[C@@H](NC(=O)[C@H](Cc1ccccc1)NC(=O)[C@@H](NC(=O)CNC(=O)[C@H](CCC(N)=O)NC(=O)C(C)(C)NC(=O)[C@@H](N)Cc1ccc(O)cc1)[C@@H](C)O)[C@@H](C)O)[C@@H](C)CC)C(=O)N[C@@H](CCC(=O)O)C(=O)N[C@@H](CCCCN)C(=O)N[C@@H](CC(C)C)C(=O)N[C@@H](C)C(=O)N[C@@H](C)C(=O)NC(C)(C)C(=O)N[C@@H](CCC(=O)O)C(=O)N[C@@H](Cc1ccccc1)C(=O)N[C@H](C(=O)N[C@@H](CCC(=O)O)C(=O)N[C@@H](Cc1c[nH]c2ccccc12)C(=O)N[C@@H](CC(C)C)C(=O)N[C@@H](CCCCN)C(=O)N[C@@H](CC(N)=O)C(=O)N[C@H](C(=O)NCC(=O)N1CCC[C@H]1C(=O)N[C@@H](CO)C(=O)N[C@@H](CO)C(=O)NCC(=O)N[C@@H](C)C(=O)N1CCC[C@H]1C(=O)N1CCC[C@H]1C(=O)N1CCC[C@H]1C(=O)N[C@@H](CO)C(N)=O)[C@@H](C)O)[C@@H](C)CC)C(=O)O` [SEQ ID NO: 8, Y-Aib-Q-G-T-F-T-S-D-L-S-I-Q-K(yE-x53)-E-K-L-A-A-Aib-E-F-I-E-W-L-K-N-T-G-P-S-S-G-A-P-P-P-S-NH2] (H-Y[Aib]QGTFTSDLSIQK([γGlu-Palmitoyl])EKLAA[Aib]EFIEWLKNTGPSSGAPPPS-NH2): the results for the 50% effective concentration (EC50) in test [1], in test [2] and in test [3] were 0.0087 nM, 0.026 nM and 0.803 nM, respectively.
For the molecule `CCCCCCCCCCCCCCCCCC(=O)N[C@@H](CCC(=O)NCCCC[C@H](NC(=O)[C@H](CCC(N)=O)NC(=O)[C@@H](NC(=O)[C@H](CO)NC(=O)[C@H](CC(C)C)NC(=O)[C@H](CC(=O)O)NC(=O)[C@H](CO)NC(=O)[C@@H](NC(=O)[C@H](Cc1ccccc1)NC(=O)[C@@H](NC(=O)CNC(=O)[C@H](CCC(=O)O)NC(=O)C(C)(C)NC(=O)[C@@H](N)Cc1ccc(O)cc1)[C@@H](C)O)[C@@H](C)O)[C@@H](C)CC)C(=O)N[C@@H](CCC(=O)O)C(=O)N[C@@H](CCC(=O)O)C(=O)N[C@@H](CCCNC(=N)N)C(=O)N[C@@H](C)C(=O)N[C@H](C(=O)N[C@@H](CCCNC(=N)N)C(=O)N[C@@H](CC(C)C)C(=O)N[C@@H](Cc1ccccc1)C(=O)N[C@H](C(=O)N[C@@H](CCC(=O)O)C(=O)N[C@@H](Cc1c[nH]c2ccccc12)C(=O)N[C@@H](CC(C)C)C(=O)N[C@@H](CCCCN)C(=O)N[C@@H](C)C(=O)NCC(=O)NCC(=O)N1CCC[C@H]1C(=O)N[C@@H](CO)C(=O)N[C@@H](CO)C(=O)NCC(=O)N[C@@H](C)C(=O)N1CCC[C@H]1C(=O)N1CCC[C@H]1C(=O)N1CCC[C@H]1C(=O)N[C@@H](CO)C(N)=O)[C@@H](C)CC)C(C)C)C(=O)O` [SEQ ID NO: 64, Y-Aib-E-G-T-F-T-S-D-L-S-I-Q-K(yE-x70)-EERAVRLFIEWLKAGGPSSGAPPPS-NH2] (H-Y[Aib]EGTFTSDLSIQK([γGlu-Stearoyl])EERAVRLFIEWLKAGGPSSGAPPPS-NH2), the concentration giving a half-maximal response (EC50) came to 0.0096 nM in test [2] and 75.1 nM in test [3].
